Measurements taken from patent US9018214B2, “Bicyclic heterocycle compounds and their uses in therapy” (Astex Therapeutics Limited, priority 2011, dated 2015).
pIC50: −log10 of the molar value. Counter-ions that a name gives are not always drawn. Like-named read-outs stand apart in the source and are kept apart here.

Key:
[1] = target: BIR3 domain of human cIAP-1 (residues 267-363) (Homo sapiens (Human), UniProt Q13490); experiment: cIAP-1 in vitro competitive displacement binding assay (fluorescence polarization; Probe A AVPIK(5&6FAM)-amide or Probe B AbuRPFK(5&6FAM)-amide)
[2] = target: BIR3 domain of human XIAP (residues 252-350) (Homo sapiens (Human), UniProt P98170); experiment: XIAP in vitro competitive displacement binding assay (fluorescence polarization); conditions: for pIC50: read-out: IC50 or PI Xiap: IC50
[3] = 3 h, Probe A, read-out: IC50 or PI cIAP1: PI
[4] = read-out: IC50 or PI cIAP1: IC50
[5] = 1 h, read-out: IC50 or PI Xiap: PI
[6] = Probe A AVPIK(5&6FAM)-amide, read-out: IC50 or PI cIAP1: IC50
[7] = Probe B AbuRPFK(5&6FAM)-amide, read-out: IC50 or PI cIAP1: IC50

Row | SMILES | pIC50 [2] | pIC50 [1, 6] | further results
1 | C[C@@H]1CN(CC(=O)N2CCc3cnccc32)CCN1 [Example 14, 1-(2,3-Dihydro-pyrrolo[3,2-c]pyridin-1-yl)-2-((R)-3-methyl-piperazin-1-yl)-ethanone] |  |  | inhibition at 160 µM [1, 3]: 46%; inhibition at 99 µM ([2]; 1 h, @ 99 μM, read-out: IC50 or PI Xiap: PI): 53%
2 | COC(=O)c1ccc2c(c1)N(C(=O)CN1CCN[C@H](C)C1)CC2 [Example 15, 1-[2-((R)-3-Methyl-piperazin-1-yl)-acetyl]-2,3-dihydro-1H-indole-6-carboxylic acid methyl ester] | 4.72 |  | pIC50 [1]: > 5.00; pIC50 [1, 4]: 5.17
3 | CNC(=O)c1ccc2c(c1)N(C(=O)CN1CCN[C@H](C)C1)CC2 [Example 16, 1-[2-((R)-3-Methyl-piperazin-1-yl)-acetyl]-2,3-dihydro-1H-indole-6-carboxylic acid methylamide] |  |  | inhibition at 250 µM ([1]; 3 h, Probe A, @ 250 μM, read-out: IC50 or PI cIAP1: PI): 56%; inhibition at 77 µM ([2]; 1 h, @ 77 μM, read-out: IC50 or PI Xiap: PI): 42%
4 | C[C@@H]1CN(CC(=O)N2CCc3ccc(C(=O)N(C)C)cc32)CCN1 [Example 17, 1-[2-((R)-3-Methyl-piperazin-1-yl)-acetyl]-2,3-dihydro-1H-indole-6-carboxylic acid dimethylamide] | 3.96 |  | inhibition at 160 µM [1, 3]: 44%
5 | C[C@@H]1CN(CC(=O)N2CCc3ccc(C(=O)N4CCCC4)cc32)CCN1 [Example 18, 2-((R)-3-Methyl-piperazin-1-yl)-1-[6-(pyrrolidine-1-carbonyl)-2,3-dihydro-indol-1-yl]-ethanone] |  |  | inhibition at 49 µM [1, 3]: 43%; inhibition at 49 µM [2, 5]: 47%
6 | C[C@@H]1CN(CC(=O)N2CC(C)(C)c3c(Cl)cccc32)CCN1 [Example 19, 1-(4-Chloro-3,3-dimethyl-2,3-dihydro-indol-1-yl)-2-((R)-3-methyl-piperazin-1-yl)-ethanone] | 3.82 | 4.77 | 
7 | C[C@@H]1CN(CC(=O)N2CC(C)(C)c3ccccc32)CCN1 [Example 21, 1-(3,3-Dimethyl-2,3-dihydro-indol-1-yl)-2-((R)-3-methyl-piperazin-1-yl)-ethanone] |  | 4.57 | inhibition at 160 µM ([2]; 1 h, @ 160 μM, read-out: IC50 or PI Xiap: PI): 45%
8 | C[C@@H]1CN(CC(=O)N2CC3(CCN(C(=O)OCc4ccccc4)CC3)c3ccc(Cl)cc32)CCN1 [Example 23, Benzyl 6-chloro-1-{2-[(3R)-3-methyl-piperazin-1-yl]acetyl}-1,2-dihydro-spiro[indole-3,4′-piperidine]-1′-carboxylate hydrochloride salt] | 4.74 | 4.96 | 
9 | C[C@@H]1CN(CC(=O)N2CCc3cc(F)c(-c4ccccc4)cc32)CCN1 [Example 24, 1-(5-Fluoro-6-phenyl-2,3-dihydro-indol-1-yl)-2-((R)-3-methyl-piperazin-1-yl)-ethanone hydrochloride salt] | 5.13 | 5.70 | pIC50 [1]: > 5.00
10 | CNS(=O)(=O)c1cc2c(cc1Br)CCN2C(=O)CN1CCN[C@H](C)C1 [Example 25, 5-Bromo-1-[2-((R)-3-methyl-piperazin-1-yl)-acetyl]-2,3-dihydro-1H-indole-6-sulfonic acid methylamide hydrochloride salt] | 5.80 | 4.22 | pIC50 [1, 7]: 4.21
11 | C[C@@H]1CN(CC(=O)N2CCc3cc(Br)c(S(=O)(=O)N(C)C)cc32)CCN1 [Example 26, 5-Bromo-1-[2-((R)-3-methyl-piperazin-1-yl)-acetyl]-2,3-dihydro-1H-indole-6-sulfonic acid dimethylamide hydrochloride salt] | 5.62 | 4.57 | 
12 | CNS(=O)(=O)c1ccc2c(c1)N(C(=O)CN1CCN[C@H](C)C1)CC2 [Example 27, 1-[2-((R)-3-Methyl-piperazin-1-yl)-acetyl]-2,3-dihydro-1H-indole-6-sulfonic acid methylamide] | 5.60 | 4.23 | 
13 | C[C@@H]1CN(CC(=O)N2CCc3ccc(OC(F)(F)F)cc32)CCN1 [Example 28, 2-((R)-3-Methyl-piperazin-1-yl)-1-(6-trifluoromethoxy-2,3-dihydro-indol-1-yl)-ethanone hydrochloride salt] | 4.77 | 4.38 | 
14 | CC(=O)N1CCC2(CC1)CN(C(=O)CN1CCN[C@H](C)C1)c1cc(Cl)ccc12 [Example 31, 1-{1′-Acetyl-6-chloro-1,2-dihydrospiro[indole-3,4′-piperidine]-1-yl}-2-[(3R)-3-methylpiperazin-1-yl]ethan-1-one hydrochloride salt] |  |  | inhibition at 49 µM [1, 3]: 62%; inhibition at 49 µM [2, 5]: 51%
15 | C[C@@H]1CN(CC(=O)N2CCc3ccc(S(=O)(=O)N(C)C)cc32)CCN1 [Example 32, 1-[2-((R)-3-Methyl-piperazin-1-yl)-acetyl]-2,3-dihydro-1H-indole-6-sulfonic acid dimethylamide] | 5.59 | 4.24 | 
16 | C[C@@H]1CN(CC(=O)N2CCc3ccc(S(=O)(=O)c4ccccc4)cc32)CCN1 [Example 33, 1-(6-Benzene-sulfonyl-2,3-dihydro-indol-1-yl)-2-((R)-3-methyl-piperazin-1-yl)-ethanone hydrochloride salt] | 5.92 | 5.42 | pIC50 [1]: > 5.00
17 | C[C@@H]1CN(CC(=O)N2CCc3cccnc32)CCN1 [Example 36, 1-(2,3-Dihydro-pyrrolo[2,3-b]pyridin-1-yl)-2-((R)-3-methyl-piperazin-1-yl)-ethanone dihydrochloride salt] | 3.62 |  | inhibition at 500 µM ([1]; 3 h, read-out: IC50 or PI cIAP1: PI): 56%
18 | C[C@@H]1CN(CC(=O)N2CCc3ccc(S(=O)(=O)N4CCCC4)cc32)CCN1 [Example 37, 2-((R)-3-Methyl-piperazin-1-yl)-1-[6-(pyrrolidine-1-sulfonyl)-2,3-dihydro-indol-1-yl]-ethanone hydrochloride salt] | 5.74 | 4.64 | 
19 | C[C@@H]1CN(CC(=O)N2CCc3cnc(-c4cc(Cl)ccc4F)cc32)CCN1 [Example 38, 1-[6-(5-Chloro-2-fluoro-phenyl)-2,3-dihydro-pyrrolo[3,2-c]pyridin-1-yl]-2-((R)-3-methyl-piperazin-1-yl)-ethanone hydrochloride salt] | 5.26 | 5.68 | pIC50 [1]: > 5.00
20 | C[C@@H]1CN(CC(=O)N2CC(C)(C)c3c(Cl)cc(Cl)cc32)CCN1 [Example 46, 1-(4,6-Dichloro-3,3-dimethyl-2,3-dihydro-indol-1-yl)-2-((R)-3-methyl-piperazin-1-yl)-ethanone hydrochloride salt] | 5.05 |  | pIC50 [1, 7]: 5.32
21 | C[C@@H]1CN(CC(=O)N2CC3(CCCC3)c3ccc(Cl)cc32)CCN1 [Example 50, 1-{6′-Chloro-1′,2′-dihydrospiro[cyclopentane-1,3′-indole]-1′-yl}-2-[(3R)-3-methyl-piperazin-1-yl]ethan-1-one hydrochloride salt] | 4.85 |  | pIC50 [1, 7]: 4.82
22 | CCS(=O)(=O)c1cc2c(cc1F)C(C)(C)CN2C(=O)CN1CCN[C@H](C)C1 [Example 51, 1-(6-Ethanesulfonyl-5-fluoro-3,3-dimethyl-2,3-dihydro-indol-1-yl)-2-((R)-3-methyl-piperazin-1-yl)-ethanone dihydrochloride salt] | 5.96 |  | pIC50 [1, 4]: 5.49
23 | CC(C)S(=O)(=O)c1cc2c(cc1F)C(C)(C)CN2C(=O)CN1CCN[C@H](C)C1 [Example 52, 1-[5-Fluoro-3,3-dimethyl-6-(propane-2-sulfonyl)-2,3-dihydro-indol-1-yl]-2-((R)-3-methyl-piperazin-1-yl)-ethanone diydrochloride salt] | 6.02 |  | pIC50 [1, 7]: 5.60
24 | C[C@@H]1CN(CC(=O)N2CC3(CC3)c3ccc(Cl)cc32)CCN1 [Example 53, 1-{6′-Chloro-1′,2′-dihydrospiro[cyclopropane-1,3′-indole]-1′-yl}-2-[(3R)-3-methyl-piperazin-1-yl]ethan-1-one hydrochloride salt] | 5.01 |  | pIC50 [1, 7]: 5.01
25 | CNC(=O)[C@H]1CN[C@H](C)CN1CC(=O)N1CC(C)(C)c2ccc(Cl)cc21 [Example 54, (2R,5R)-1-[2-(6-Chloro-3,3-dimethyl-2,3-dihydro-indol-1-yl)-2-oxo-ethyl]-5-methyl-piperazine-2-carboxylic acid methylamide hydrochloride salt] | 5.74 |  | pIC50 [1, 7]: 5.68
26 | C[C@@H]1CN(CC(=O)N2CC3(CCC3)c3ccc(Cl)cc32)CCN1 [Example 55, 1-{6′-Chloro-1′,2′-dihydrospiro[cyclobutane-1,3′-indole]-1′-yl}-2-[(3R)-3-methyl-piperazin-1-yl]ethan-1-one hydrochloride salt] | 4.92 |  | pIC50 [1, 7]: 5.09
27 | C[C@@H]1CN(CC(=O)N2CC(C)(C)c3cc(F)c(S(=O)(=O)C4CC4)cc32)CCN1 [Example 57, 1-(6-Cyclopropane-sulfonyl-5-fluoro-3,3-dimethyl-2,3-dihydro-indol-1-yl)-2-((R)-3-methyl-piperazin-1-yl)-ethanone dihydrochloride salt] | 6.09 |  | pIC50 [1, 4]: 5.70
28 | COC[C@H]1CN[C@H](C)CN1CC(=O)N1CC(C)(C)c2cc(OC)ncc21 [Example 65, 1-(5-Methoxy-3,3-dimethyl-2,3-dihydro-pyrrolo[2,3-c]pyridin-1-yl)-2-((2R,5R)-2-methoxymethyl-5-methyl-piperazin-1-yl)-ethanone hydrochloride salt] | 5.22 |  | pIC50 [1, 7]: 5.89
